Measurements taken from ChEMBL document CHEMBL3217655, “The development of quinoloneesters as novel antimalarial agents targeting the Plasmodium falciparum bc1protein complex” (Medchemcomm, 2012).
One block for each compound: values may come before it.

Key:
Plasmodium falciparum = experiment: Antimalarial activity against wild type Plasmodium falciparum 3D7 assessed as growth inhibition; format: functional, organism-based
[1] = Inhibition of Plasmodium falciparum 3D7 cytochrome bc1 complex assessed as cytochrome c reduction by spectrophotometric analysis in presence of decylubiquinol
[2] = Plasmodium falciparum, 3D7, read-out: IC50

Compound: CCOC(=O)c1c[nH]c2ccc(Oc3ccccc3)cc2c1=O
IC50 (Plasmodium falciparum; [2]): 164 nM

Compound: CCOC(=O)c1c[nH]c2cc(Oc3ccccc3)ccc2c1=O
IC50 (Plasmodium falciparum; [2]): 19.3 nM

Compound: CCOC(=O)c1c[nH]c2cc(Cc3ccccc3)ccc2c1=O
IC50 (Plasmodium falciparum; [2]): 4.57 nM

Compound: CCOC(=O)c1c[nH]c2ccc(OCc3ccccc3)cc2c1=O
IC50 (Plasmodium falciparum): ND(Insoluble)

Compound: CCOC(=O)c1c[nH]c2cc(OCc3ccccc3)ccc2c1=O
IC50 (Plasmodium falciparum): ND(Insoluble)

Compound: CCOC(=O)c1c[nH]c2ccc(Oc3ccc(OC(F)(F)F)cc3)cc2c1=O
IC50 (Plasmodium falciparum; [2]): 230 nM

Compound: CCOC(=O)c1c[nH]c2cc(Oc3ccc(OC(F)(F)F)cc3)ccc2c1=O
IC50 (Plasmodium falciparum; [2]): 5.3 nM

Compound: CCOC(=O)c1c[nH]c2ccc(Cc3ccc(OC(F)(F)F)cc3)cc2c1=O
IC50 (Plasmodium falciparum; [2]): 142 nM

EC50 [1]: 1.3 nM
Compound: CCOC(=O)c1c[nH]c2cc(Cc3ccc(OC(F)(F)F)cc3)ccc2c1=O
IC50 (Plasmodium falciparum; [2]): 0.46 nM

Compound: CCOC(=O)c1c[nH]c2ccc(OCc3ccc(OC(F)(F)F)cc3)cc2c1=O
IC50 (Plasmodium falciparum; [2]): 675 nM

Compound: CCOC(=O)c1c[nH]c2cc(OCc3ccc(OC(F)(F)F)cc3)ccc2c1=O
IC50 (Plasmodium falciparum; [2]): 5 nM

Compound: N#Cc1c[nH]c2ccc(Oc3ccccc3)cc2c1=O
IC50 (Plasmodium falciparum; [2]): > 10000 nM

Compound: N#Cc1c[nH]c2cc(Oc3ccccc3)ccc2c1=O
IC50 (Plasmodium falciparum; [2]): 8100 nM

Compound: O=c1cc[nH]c2ccc(Oc3ccccc3)cc12
IC50 (Plasmodium falciparum; [2]): 4700 nM

Compound: O=c1cc[nH]c2cc(Oc3ccccc3)ccc12
IC50 (Plasmodium falciparum; [2]): 6720 nM

Compound: CC(C)OC(=O)c1c[nH]c2ccc(Oc3ccccc3)cc2c1=O
IC50 (Plasmodium falciparum; [2]): 184 nM

Compound: CC(C)OC(=O)c1c[nH]c2cc(Oc3ccccc3)ccc2c1=O
IC50 (Plasmodium falciparum; [2]): 8.45 nM

Compound: O=C(OC1CCCCC1)c1c[nH]c2ccc(Oc3ccccc3)cc2c1=O
IC50 (Plasmodium falciparum; [2]): 1820 nM

Compound: O=C(OC1CCCCC1)c1c[nH]c2cc(Oc3ccccc3)ccc2c1=O
IC50 (Plasmodium falciparum; [2]): 29.6 nM

Compound: CCOC(=O)c1c[nH]c2ccc(Cc3ccccc3)cc2c1=O
IC50 (Plasmodium falciparum; [2]): 40.4 nM

EC50 [1]: 3 nM
Compound: O=C1C(O)=C([C@H]2CC[C@H](c3ccc(Cl)cc3)CC2)C(=O)c2ccccc21 [ATOVAQUONE]
